The target in this assay is TLR4 (Homo sapiens, UniProt O00206). Briefly: Inhibition of the TLR4 signaling pathway / TLR4 binding. Here is the method:
These compounds were evaluated for inhibition of the TLR4 signaling pathway in vitro and in vivo.

For one molecule, TLR4 binding results are on record in patent publication US20150087682A1, “Method for Treating Scleroderma” (The Regents of the University of Colorado, A body corporate, priority 2012, published 2015).

Chain of TLR4 (O00206 24-839, species assumed): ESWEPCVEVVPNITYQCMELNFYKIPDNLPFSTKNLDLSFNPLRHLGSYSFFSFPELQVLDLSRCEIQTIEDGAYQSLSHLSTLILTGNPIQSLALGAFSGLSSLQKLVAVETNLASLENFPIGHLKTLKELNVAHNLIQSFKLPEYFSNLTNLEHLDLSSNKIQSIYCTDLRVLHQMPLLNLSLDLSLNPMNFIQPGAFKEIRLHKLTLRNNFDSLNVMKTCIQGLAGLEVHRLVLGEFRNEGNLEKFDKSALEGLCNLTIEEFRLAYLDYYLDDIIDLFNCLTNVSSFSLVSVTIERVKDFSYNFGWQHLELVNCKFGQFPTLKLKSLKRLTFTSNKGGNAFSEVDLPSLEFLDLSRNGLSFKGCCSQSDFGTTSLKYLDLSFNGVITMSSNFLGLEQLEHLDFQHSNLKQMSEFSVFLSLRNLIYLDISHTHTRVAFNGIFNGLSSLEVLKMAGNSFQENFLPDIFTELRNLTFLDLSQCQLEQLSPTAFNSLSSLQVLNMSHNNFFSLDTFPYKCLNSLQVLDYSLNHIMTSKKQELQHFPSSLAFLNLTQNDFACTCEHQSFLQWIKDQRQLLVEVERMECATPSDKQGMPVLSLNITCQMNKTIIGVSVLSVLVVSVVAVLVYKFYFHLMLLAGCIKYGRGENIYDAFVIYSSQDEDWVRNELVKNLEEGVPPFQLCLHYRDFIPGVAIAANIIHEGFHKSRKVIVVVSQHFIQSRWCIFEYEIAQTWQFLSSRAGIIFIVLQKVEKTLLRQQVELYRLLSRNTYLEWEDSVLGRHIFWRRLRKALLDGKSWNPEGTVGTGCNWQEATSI

Consider `CCOc1ccc(OCC(O)CN(C)Cc2c(C)nn(Cc3ccccc3Cl)c2C)cc1` (stereo not shown) [Compound A-1, 1-(((1-(2-chlorobenzyl)-3,5-dimethyl-1H-pyrazol-4-yl)methyl)(methyl)amino)-3-(4-ethoxyphenoxy)propan-2-ol], for which the TLR4 binding entry is listed as “substantially inhibited TLR4 binding”.
